Values quoted from earlier work as cited in patent publication US20130324497A1, “COMPOSITIONS AND METHODS FOR TREATING HEPATITIS B VIRUS INFECTION” (priority 2012, published 2013).
“Also recorded” adds a separate entry of the source. Read-outs that look alike come from different tables or passages of the source.

Assays:
hepatitis B virus = settings: for cumulative rate of resistance: 5 years
[1] = in vivo
[2] = system: HBV mutants resistant to lamivudine

Structure (SMILES) | cumulative rate of resistance (hepatitis B virus; HBeAg negative patients) [%] | cumulative rate of resistance (hepatitis B virus; HBeAg positive patients) | adefovir-associated nephrotoxicity, patients [1] | 5-year resistance rate (hepatitis B virus; 5-year, monotherapy) | susceptibility of lamivudine-resistant mutants [2]
CC(C)(C)C(=O)OCOP(=O)(COCCn1cnc2c(N)ncnc21)OCOC(=O)C(C)(C)C [adefovir dipivoxil, 9-[2-[[bis[(pivaloyloxy)methoxy]-phosphinyl]-methoxy]ethyl]adenine] | ~29 | about 20% | up to 47% | – | –
Nc1ncnc2c1ncn2CCOCP(=O)(O)O [adefovir] | – | – | – | 20-30% | retain susceptibility; also recorded: remain susceptible
